Results on one molecule are retold here after publication PMC10754035 (Cancer Research Communications, 2023).

Where two headings read alike, the source gives them in different places.

Experiment [1] relates to P-MEK, P-AKT, P-S6, cleaved caspase 3 and PARP in PDX G166. Put plainly: Tumor signaling and apoptosis markers, PDX G166 (Western blot). The format is in vivo, NSG mice. The settings on record: PDX G166, 5 mpk, two hours after treatment; for inhibition at 5 mg/kg: Mus musculus, 2 h. The source says: To prepare whole-cell lysates, cells were washed twice with cold PBS and lysed in M-PER Mammalian Protein Extraction Reagent (product no. 78501, Thermo Fisher Scientific) supplemented with Pierce protease and phosphatase inhibitor cocktail (product no. A32961, Thermo Fisher Scientific). Tumor tissue samples were lysed in T-PER Tissue Protein Extraction Reagent (product no. 78510, Thermo Fisher Scientific) with above supplement. The automatic hand-operated OMNI-TIP Homogenizer (Omni International, Inc.) was used to homogenize the tumor tissues. Lysates from whole cells and tumor homogenates were then processed for SDS-PAGE Western blotting. The following antibodies were used: Phospho-MEK1/2 (S217/221; catalog no. 9154S), MEK1/2 (catalog no. 4694S), Phospho-AKT (S473; catalog no. 9271S), Phospho-AKT (T308; catalog no. 4056S), AKT (catalog no. 9272S), Phospho-Erk1/2 (catalog no. 4370S), Erk1/2 (catalog no. 4695S), Phospho-S6 Ribosomal Protein (Ser 235/236; catalog no. 4858S), S6 Ribosomal Protein (catalog no.2217S), cleaved-CASP-3 (catalog no. 9664), cleaved-PARP (catalog no. 9541) from Cell Signaling Technology; anti-β-ACTIN (catalog no A5441-.2ML from Sigma-Aldrich; KRAS (catalog no. OP24, from EMDMillipore), and RAF1 (catalog no. sc-7267, Santa Cruz Biotechnology), horseradish peroxidase–conjugated goat anti-GST antibody (catalog no. A190-121P from Bethyl Laboratories).
Two hours after treatment, tumors were harvested and lysates were processed for Western blotting as described above.
Figure S9. […] Two hours after treatment, tumors were harvested and lysates were processed for western blotting as described in Methods. * , **, ***, and **** designate blots from different gels. (b) and (c) Quantification of the western blots. Error bars represent standard error.

Experiment [2] relates to low-passage pancreatic cancer cells derived from 8 patients. The experiment is described as follows: Viability of patient-derived pancreatic cancer cells, 2D. The class given is cell-based. The settings on record: Homo sapiens, Pancreatic cancer cell; 2D conditions, 72 hours, CellTiter-Glo; read-out: IC50 values, viability, range over cells from 8 patients. The protocol: Low-passage (<20) human pancreatic cancer cell lines were derived from 8 patients with pancreatic cancer using IRB-approved (MDA Cancer Center protocol LAB07-0854) and previously described methods ([41–43]). The cell lines were provided to Dr. Jason B. Fleming by Dr. Michael P. Kim (MD Anderson Cancer Center). Written consent was obtained from the subjects, and the research was conducted according to Declaration of Helsinki. The cells were plated at 3,000/well in triplicate in a 96-well flat-bottom plate in RPMI1640 medium with 10% FBS. […] Pancreatic cancer cells (3,000/well) were resuspended in RPMI-2% Matrigel medium-10% FBS overlaid on the solidified Matrigel and cultured for 24 hours before treatment. For 3D coculture with pancreatic stellate cells, human pancreatic stellate cells were grown until confluent in RPMI1640 with 10% FBS. Matrigel was added as in 3D culture and pancreatic cancer cells and human pancreatic stellate cells were resuspended at 3,000 cells/well in RPMI-2% Matrigel medium supplemented with 10% FBS, overlaid at 1:1 ratio, and cultured for 24 hours before treatment. Cell viability was determined by the CellTiter-Glo luminescent cell viability assay (Promega) according to the manufacturer's protocol. […] Data were normalized to percentage of control, and IC50 values were determined. IC50 was calculated using GraphPad Prism 7.02 software. […]

In the case of `COC(=O)C1C2C3(C)C(=O)C=CC2(OC3=O)C2CCC3(CBr)CC12CC3=O` (stereo not shown) [KRB-456], the inhibition at 5 mg/kg in experiment [1] (read-out: inhibition of P-AKT (S473) levels in tumor) came to 73.5%; in experiment [1] (read-out: inhibition of P-AKT (T308) levels in tumor), 56.7%; in experiment [1] (read-out: inhibition of P-MEK levels in tumor) it was 49.9%; in experiment [1] (read-out: inhibition of P-S6 levels in tumor) it was 83.9%. Further, in experiment [1], the “increase of cleaved PARP in tumor” value was determined as 2.7 fold. Besides, in experiment [1], the “increase of cleaved caspase 3 in tumor” value came out at 3.1 fold. In experiment [2], the IC50 lay within 4.7 to 16.7 µM.
